Reference: patent US20240174693A1, “SOMATOSTATIN RECEPTOR SUBTYPE 4 (SSTR4) AGONISTS AND THEIR APPLICATIONS” (Humanwell Pharmaceutical US, priority 2022, published 2024)

Columns and labels:
Format in all cases: in vitro ADME
[1] = Metabolic stability in liver microsomes (rat); settings: for CLint scaled at 1 μM: pH 7.4; for half-life at 1 μM: pH 7.4, read-out: Metabolic stability T½
Description: Buffers A-C were prepared for use in the metabolic study. The buffers were as follows: Buffer A: 1.0 L of 0.1 M monobasic Potassium Phosphate buffer containing 1.0 mM EDTA; Buffer B: 1.0 L of 0.1 M Dibasic Potassium Phosphate buffer containing 1.0 mM EDTA; and Buffer C: 0.1 M Potassium Phosphate buffer, 1.0 mM EDTA, pH 7.4 by titrating 700 mL of buffer B with buffer A while monitoring with the pH meter.
Ketanserin was used as the reference compound. Reference compound and test compound spiking solutions (500 μM spiking solution) were prepared by adding 10 μL of 10 mM DMSO stock solution into 190 μL ACN. 1.5 μL of 500 μM spiking solution (0.75 mg/mL) and 18.75 μL of 20 mg/mL liver microsomes were added into 479.75 μL of Buffer C on ice.
A 6 mM NADPH stock solution was prepared by dissolving an appropriate amount of NADPH into buffer C. 30 μL of 1.5 μM spiking solution containing 0.75 mg/mL microsomes solution was dispensed to the assay plates designated for different time points (0-, 5-, 15-, 30-, 45-min) on ice. […] All the other plates were pre-incubated at 37° C. for 5 minutes. 15 μL of 6 mM NADPH stock solution was added to the plates to start the reaction and time. At 5-min, 15-min, 30-min, and 45-min, 135 μL of ACN containing internal standard were added to the wells of corresponding plates, respectively, to stop the reaction. […]

[2] = Plasma protein binding by dialysis; settings: rat plasma; for Protein Binding Fu(%) / fraction unbound at 5 h, 1 μM: 1 μM, 5 hours dialysis at 37° C.; for fraction unbound at 5 h, 1 μM: read-out: Protein Binding Fraction unbound (fu) (converted)
Description: The following solutions were prepared: Solution A (0.5 mM) 10 μL of 10 mM stock solution was added into 190 μL of DMSO and Solution B (0.02 mM): 8 μL of Solution A was added into 192 μL of 0.05 M sodium phosphate buffer. The final DMSO concentration in Solution B is 4%.
A 96-well plate was preloaded with 380 μL aliquots of plasma in the wells designated for plasma and buffer, respectively. 20 μL of Solution B (0.02 mM of test and reference compounds) was spiked into the pre-loaded plasma in the 96-well plate. The final test concentration was 1 μM containing 0.2% DMSO.
Aliquots of 100 μL of blank dialysis buffer were applied to the receiver side of dialysis chambers. Next aliquots of 100 μL of the plasma spiked with test and reference compounds were applied to the donor side of the dialysis chambers. Blank buffer was added to the receiver first and the buffer and plasma chambers were clearly marked to avoid cross contamination.
Aliquots of 25 μL of plasma spiked with test and reference compounds were placed in 96-well sample preparation plates as t=0 min plasma samples. The aliquots were mixed with the same volume of blank buffer (50:50, v/v). The samples were quenched with 200 μL of acetonitrile containing internal standard (IS). The dialysis block was covered with a plastic lid and the entire apparatus was placed on a shaker (60 rpm) for 5 hours at 37° C.
25 μL aliquot from both the donor sides and receiver sides of the dialysis apparatus were placed into new sample preparation plates and mixed with the same valune of opposite matrixes (blank buffer to plasma and vice versa). The sample was quenched with 200 μL acetonitrile containing internal standard. All the samples from 0 hour to 5 hours were vortexed at 600 rpm for 10 minutes followed by centrifugation at 5594 g for 15 minutes (Thermo Multifuge×3R). 50 μL of the supernatant was transferred to a new 96-well plate and the sample was mized with 50 μL of Mili-Q water. The sample plate was covered and stored in a −20° C. freezer. The samples were subsequently analyzed by LC/MS/MS.

RBC partitioning study = settings: rat
Description: 0.05 M sodium phosphate buffer, pH 7.4 was prepared using the following steps. Stock A, stock B, and stock C solutions were prepared by adding 156 g of monobasic sodium phosphate in 1 L of Milli-Q water (1.0 M), 142 g of dibasic sodium phosphate in 1 L of Milli-Q water (1.0 M), and 58.5 g of sodium chloride in 1 L of Milli-Q water (1.0 M) respectively. 20.25 mL of Stock B and 4.75 mL of Stock A were added to 35 mL of Stock C and the total volume was brought to near 500 mL with Milli-Q water. The resulting buffer solution was titrated with NaOH or H3PO4 to pH 7.4 and the total volume was brought to 500 mL. The 0.05 M sodium phosphate buffer was preheated at 37° C.
Fresh blank plasma preparation and hematocrit determination. A tube containing whole blood was centrifuged at 4000 rpm for 10 minuts. The plasma was harvested was stored. Hematocrit (the volume of red blood cells to the total volume of whole blood) was determined using the formula:
Hematocrit=Vred cells/Vblood=(Vblood−Vplasma)/Vblood
Vblood: the volume of whole blood applied
Vplasma: the volume of plasma measured after centrifugation
Preparation of reference and test compound spiking solutions in plasma. 1.25 mM spiking solution A was prepared by adding add 10 μL of 10 mM reference into 70 μL of plasma (8-fold dilution).
Preparation of reference and test compound in whole blood and plasma. For whole blood samples, 12 μL of spiking solution B (prepared above) was added to 288 μL of whole blood (25-fold dilution). For plasma samples, 6 μL of spiking solution B was added to 144 μL of plasma (25-fold dilution). The assay procedure used is as follows. The assay plate was placed in an incubator at 37° C. for 60 minutess. 300 μL of compound spiking solution in whole blood from above was removed and centrifuged at 4000 rpm for 10 minutes. Subsequently plasma was harvested. 50 μL of plasma sample was removed and 150 μL of acetonitrile (containing IS) was added and vortexed for 5 min. The sample was centrifuged at 6000 rpm for 15 minutes. The supernatant was removed and analyzed by LC/MS.

SMILES	CLint scaled at 1 μM [1] [mL/min/kg]	half-life at 1 μM [1] [h]	Protein Binding Category [2]	recovery at 5 h, 1 µM [2] [%]	Protein Binding Fu(%) [2] [%]	fraction unbound at 5 h, 1 μM [2]	RBC Partitioning Study KRBC/PL (RBC partitioning study)	RBC Partitioning Study KBlood/PL (RBC partitioning study)
CC(C)(NC(=O)[C@H]1[C@@H]2CNC[C@H]1C2)c1ncc2c(Cl)cccn12 [Compound 7, (1R,5S,6r)-N-(2-(8-chloroimidazo[1,5-a]pyridin-3-yl)propan-2-yl)-3-azabicyclo[3.1.1]heptane-6-carboxamide]	18.4	2.25	Moderate	96.6	37.8	0.378	1.15	–
CC(C)(NC(=O)[C@H]1[C@@H]2CNC[C@H]1C2)c1ncc2c(Br)cccn12 [Compound 8, (1R,5S,6r)-N-(2-(8-bromoimidazo[1,5-a]pyridin-3-yl)propan-2-yl)-3-azabicyclo[3.1.1]heptane-6-carboxamide]	2.98	9.71	Moderate	103	28.16	0.282	0.94	–
CC(C)(NC(=O)[C@H]1[C@@H]2CNC[C@H]1C2)c1nc(C2CC2)c2ccccn12 [Compound 9, (1R,5S,6r)-N-(2-(1-cyclopropylimidazo[1,5-a]pyridin-3-yl)propan-2-yl)-3-azabicyclo[3.1.1]heptane-6-carboxamide]	1.73	23.9	Moderate	68.2	40.9	0.409	1.09	1.05
